Consider one compound from patent US8076343B2, “Benzimidazoles useful as inhibitors of protein kinases” (Vertex Pharmaceuticals Incorporated, priority 2005, dated 2011).

Compound `Nc1nc2ccccc2n1-c1cc(NC2CCCNC2)ncn1` (stereo not shown) [Compound 3] showed a melting point of 87 to 88 °C.

Usually melting point stands for the temperature, or range, at which the solid turns liquid.
